# Test results published in article PMC6072100, “Exploring the links between peptoid antibacterial activity and toxicity” (MedChemComm, 2017).
# Square brackets hold non-standard residues; d marks the D form. Peptide text beside a SMILES is read from it. Gly(N-(CH2)6NH2) = NCCCCCCNCC(=O)O; Gly(N-2-aminoethyl) = NCCNCC(=O)O; Nspe = C[C@H](NCC(=O)O)c1ccccc1; Nphe = O=C(O)CNCc1ccccc1; Nlys = NCCCCNCC(=O)O
# Columns and labels:
# [1] = Skin cell toxicity assay with HaCaT (alamarBlue); type: cell-based, human; conditions: human, HaCaT cells (keratinocytes), ED50 HaCaT
# Protocol: (§1) The activity of our peptoid library was assessed against both bacterial and mammalian cells to gain a broader understanding of the factors that lead to effective and selective antimicrobial peptoids. We screened for broad-spectrum antibacterial activity against Gram-negative (Escherichia coli and Pseudomonas aeruginosa) and Gram-positive (Staphylococcus aureus and S. epidermidis) bacteria. The toxicity of the library was also assessed against two mammalian cell lines; HaCaT spontaneously transformed aneuploid keratinocytes were employed to model toxicity against human skin cells and HepG2, a cell line derived from a human liver carcinoma, were used as a study on polarised human hepatocytes. Detailed methods for these assays can be found in the ESI. ^‡ […]
# (§2) Please note – ED50, the median effective dose, was defined as the dose that kills 50% of cells.
# Cytotoxicity analyses were performed in 96-well plates (Costar, Fisher Scientific) using alamarBlue® (Invitrogen) for cell viability detection using a modified protocol as described previously. HepG2 or HaCaT cells were subcultured at 37 °C, 5% CO2 in DMEM high glucose supplemented with heat-inactivated foetal bovine sera (FBS, 10%; Biosera Ltd) and penicillin/streptomycin (P/S, 1%). Cells were counted using a Neubauer Improved Haemocytometer. HepG2 cells were seeded 1 day prior to treatment in 96 well plates at a concentration of 2 × 10^5 cells per mL in 100 μL of medium (2 × 10^4 cells per well). Then cells were pre-incubated with the compounds in triplicate in a dilution series in triplicate from 2–100 μM (5 mM stock solutions in DMSO diluted from 100 μM to 3 μM; untreated cells with DMSO as a negative control) in 50 μl of the media for 1 hour. Afterwards, 40 μL were removed from each well before the addition of 90 μL of the media, followed by incubation for 24 hours at 37 °C, 5% CO2. Then, 10 μL of alamarBlue® (Invitrogen) was added to each well before a 2 hour incubation prior to assessing cell viability using a fluorescent plate reader (Biotek; Ex 560 nm/Em 600 nm). All data were measured in triplicate on a minimum of two occasions to ensure a robust data set was collected. The ED50 values were calculated from the dose response results achieved from the serial dilutions. […]
# Cells were counted using a Neubauer Improved
# Haemocytometer. […]
# µM to 3 µM; untreated cells with DMSO as a negative control) in 50 µl of the media for 1 hour.
# (§3) Afterwards, 40 µL were removed from each well before the addition of 90 µL of the media, followed by incubation for 24 hours at 37 °C, 5% CO2. Then, 10 µL of alamarBlue® (Invitrogen) was added to each well before a 2 hour incubation prior to assessing cell viability using a fluorescent plate reader (Biotek; Ex 560 nm / Em 600 nm). All data was measured in triplicate on a minimum of two occasions to ensure a robust data set was collected. The ED50 values were calculated from the dose response results achieved from the serial dilutions.
# Skin Cell Toxicity assay with HaCaT […]
# alamarBlue® (Invitrogen) for cell viability detection. HaCaT cells were subcultured at 37 °C, 5% CO2 in DMEM high glucose supplemented with heat-inactivated foetal bovine sera (FBS, 10%; Biosera Ltd) and penicillin/streptomycin (P/S, 1%). Cells were counted using a Neubauer Improved Haemocytometer. HaCaT cells were seeded in the plates 24 hours prior to treatment in 96 well plates at a concentration of 2x10^5 cells/mL in 100 µL of medium (2x10^4 cells/well).
# Empty wells were filled with 100 µL PBS. After 24 hours, cells were incubated with the compounds in a dilution series in triplicate from 2 – 100 µM (5 mM stock solutions in DMSO diluted from 100 µM to 3 µM; Amphotericin B was used as a positive control and untreated cells with DMSO as a negative control) in 50 µL of the media for 1 hour. Afterwards, 40 µl was removed from each well, 90 µL of medium was added to each well and the cells incubated for 24 hours at 37 °C, 5% CO2. 10 µL of alamarBlue® (Invitrogen) was added to each well before […]
# [2] = Cytotoxicity assay with HepG2 (alamarBlue); type: cell-based, human; conditions: human, HepG2 cells, ED50 HepG2
# Protocol: as §1, §2
# Cytotoxicity analyses were performed in 96-well plates (Costar, Fisher Scientific) using alamarBlue® (Invitrogen) for cell viability detection using a modified protocol as described previously. HepG2 or HaCaT cells were subcultured at 37 °C, 5% CO2 in DMEM high glucose supplemented with heat-inactivated foetal bovine sera (FBS, 10%; Biosera Ltd) and penicillin/streptomycin (P/S, 1%). Cells were counted using a Neubauer Improved Haemocytometer. HepG2 cells were seeded 1 day prior to treatment in 96 well plates at a concentration of 2 × 10^5 cells per mL in 100 μL of medium (2 × 10^4 cells per well). Then cells were pre-incubated with the compounds in triplicate in a dilution series in triplicate from 2–100 μM (5 mM stock solutions in DMSO diluted from 100 μM to 3 μM; untreated cells with DMSO as a negative control) in 50 μl of the media for 1 hour. Afterwards, 40 μL were removed from each well before the addition of 90 μL of the media, followed by incubation for 24 hours at 37 °C, 5% CO2. Then, 10 μL of alamarBlue® (Invitrogen) was added to each well before a 2 hour incubation prior to assessing cell viability using a fluorescent plate reader (Biotek; Ex 560 nm/Em 600 nm). All data were measured in triplicate on a minimum of two occasions to ensure a robust data set was collected. The ED50 values were calculated from the dose response results achieved from the serial dilutions.
# Cytotoxicity assay with HepG2
# Cytotoxicity analyses were performed in 96-well plates (Costar, Fisher Scientific) using alamarBlue® (Invitrogen) for cell viability detection using a modified protocol as previously described. The HepG2 cells were grown at 37 °C, 5% CO2 in DMEM high glucose supplemented with heat-inactivated foetal bovine sera (FBS, 10%; Biosera Ltd) and penicillin/streptomycin (P/S, 1%). Cells were counted using a Neubauer Improved Haemocytometer. HepG2 cells were seeded 1 day prior to treatment in 96 well plates at a concentration of 2x10^5 cells/mL in 100 µL of medium (2x10^4 cells/well). Then cells were pre-incubated with the compounds in triplicate (5 mM stock solutions in DMSO diluted from 100 µM to 3 µM; untreated cells with DMSO as a negative control) in 50 µl of the media for 1 hour.
# as §3, with “dilutions. […]” for “dilutions.”
# 5% CO2 in DMEM high glucose supplemented with heat-inactivated foetal bovine sera (FBS, 10%; Biosera Ltd) and penicillin/streptomycin (P/S, 1%). Cells were counted using a Neubauer […]
# Empty wells were filled with 100 µL PBS. After 24 hours, cells were incubated with the compounds in a dilution series in triplicate from 2 – 100 µM (5 mM stock solutions in DMSO […]
smiles,measurement,setting,value
"NCCCCCCNCC(=O)N(CC(=O)N(CC(=O)N(CCCCCCN)CC(=O)N(CC(=O)N(CC(=O)N(CCCCCCN)CC(=O)N(CC(=O)N(CC(=O)N(CCCCCCN)CC(=O)N(CC(=O)N(CC(N)=O)Cc1ccccc1)Cc1ccccc1)Cc1ccccc1)Cc1ccccc1)Cc1ccccc1)Cc1ccccc1)Cc1ccccc1)Cc1ccccc1 [Peptoid 1, (NahNpheNphe)4] (H-[Gly(N-(CH2)6NH2)][Nphe][Nphe][Gly(N-(CH2)6NH2)][Nphe][Nphe][Gly(N-(CH2)6NH2)][Nphe][Nphe][Gly(N-(CH2)6NH2)][Nphe][Nphe]-NH2)",CC50 at 24 h,[1],100 µM
same,CC50 at 24 h,[2],100 µM
"NCCCCCCNCC(=O)N(CC(=O)N(CC(=O)N(CCCCCCN)CC(=O)N(CC(=O)N(CC(=O)N(CCCCCCN)CC(=O)N(CC(=O)N(CC(N)=O)Cc1ccccc1)Cc1ccccc1)Cc1ccccc1)Cc1ccccc1)Cc1ccccc1)Cc1ccccc1 [Peptoid 2, (NahNpheNphe)3] (H-[Gly(N-(CH2)6NH2)][Nphe][Nphe][Gly(N-(CH2)6NH2)][Nphe][Nphe][Gly(N-(CH2)6NH2)][Nphe][Nphe]-NH2)",CC50 at 24 h,[1],100 µM
same,CC50 at 24 h,[2],100 µM
"NCCCCCCNCC(=O)N(CC(=O)N(CC(=O)N(CCCCCCN)CC(=O)N(CC(=O)N(CC(N)=O)Cc1ccccc1)Cc1ccccc1)Cc1ccccc1)Cc1ccccc1 [Peptoid 3, (NahNpheNphe)2] (H-[Gly(N-(CH2)6NH2)][Nphe][Nphe][Gly(N-(CH2)6NH2)][Nphe][Nphe]-NH2)",CC50 at 24 h,[1],100 µM
same,CC50 at 24 h,[2],100 µM
"NCCCCNCC(=O)N(CC(=O)N(CC(=O)N(CCCCN)CC(=O)N(CC(=O)N(CC(=O)N(CCCCN)CC(=O)N(CC(=O)N(CC(=O)N(CCCCN)CC(=O)N(CC(=O)N(CC(N)=O)Cc1ccccc1)Cc1ccccc1)Cc1ccccc1)Cc1ccccc1)Cc1ccccc1)Cc1ccccc1)Cc1ccccc1)Cc1ccccc1 [Peptoid 4, (NLysNpheNphe)4] (H-[Nlys][Nphe][Nphe][Nlys][Nphe][Nphe][Nlys][Nphe][Nphe][Nlys][Nphe][Nphe]-NH2)",CC50 at 24 h,[1],36 µM
same,CC50 at 24 h,[2],100 µM
"NCCCCNCC(=O)N(CC(=O)N(CC(=O)N(CCCCN)CC(=O)N(CC(=O)N(CC(=O)N(CCCCN)CC(=O)N(CC(=O)N(CC(N)=O)Cc1ccccc1)Cc1ccccc1)Cc1ccccc1)Cc1ccccc1)Cc1ccccc1)Cc1ccccc1 [Peptoid 5, (NLysNpheNphe)3]",CC50 at 24 h,[1],100 µM
same,CC50 at 24 h,[2],100 µM
"NCCCCNCC(=O)N(CC(=O)N(CC(=O)N(CCCCN)CC(=O)N(CC(=O)N(CC(N)=O)Cc1ccccc1)Cc1ccccc1)Cc1ccccc1)Cc1ccccc1 [Peptoid 6, (NLysNpheNphe)2] (H-[Nlys][Nphe][Nphe][Nlys][Nphe][Nphe]-NH2)",CC50 at 24 h,[1],100 µM
same,CC50 at 24 h,[2],100 µM
"NCCNCC(=O)N(CC(=O)N(CC(=O)N(CCN)CC(=O)N(CC(=O)N(CC(=O)N(CCN)CC(=O)N(CC(=O)N(CC(=O)N(CCN)CC(=O)N(CC(=O)N(CC(N)=O)Cc1ccccc1)Cc1ccccc1)Cc1ccccc1)Cc1ccccc1)Cc1ccccc1)Cc1ccccc1)Cc1ccccc1)Cc1ccccc1 [Peptoid 7, (NaeNpheNphe)4] (H-[Gly(N-2-aminoethyl)][Nphe][Nphe][Gly(N-2-aminoethyl)][Nphe][Nphe][Gly(N-2-aminoethyl)][Nphe][Nphe][Gly(N-2-aminoethyl)][Nphe][Nphe]-NH2)",CC50 at 24 h,[1],100 µM
same,CC50 at 24 h,[2],100 µM
"NCCNCC(=O)N(CC(=O)N(CC(=O)N(CCN)CC(=O)N(CC(=O)N(CC(=O)N(CCN)CC(=O)N(CC(=O)N(CC(N)=O)Cc1ccccc1)Cc1ccccc1)Cc1ccccc1)Cc1ccccc1)Cc1ccccc1)Cc1ccccc1 [Peptoid 8, (NaeNpheNphe)3] (H-[Gly(N-2-aminoethyl)][Nphe][Nphe][Gly(N-2-aminoethyl)][Nphe][Nphe][Gly(N-2-aminoethyl)][Nphe][Nphe]-NH2)",CC50 at 24 h,[1],100 µM
same,CC50 at 24 h,[2],100 µM
"NCCNCC(=O)N(CC(=O)N(CC(=O)N(CCN)CC(=O)N(CC(=O)N(CC(N)=O)Cc1ccccc1)Cc1ccccc1)Cc1ccccc1)Cc1ccccc1 [Peptoid 9, (NaeNpheNphe)2] (H-[Gly(N-2-aminoethyl)][Nphe][Nphe][Gly(N-2-aminoethyl)][Nphe][Nphe]-NH2)",CC50 at 24 h,[1],100 µM
same,CC50 at 24 h,[2],100 µM
"C[C@@H](c1ccccc1)N(CC(N)=O)C(=O)CN(C(=O)CN(CCCCCCN)C(=O)CN(C(=O)CN(C(=O)CN(CCCCCCN)C(=O)CN(C(=O)CN(C(=O)CN(CCCCCCN)C(=O)CN(C(=O)CN(C(=O)CNCCCCCCN)[C@@H](C)c1ccccc1)[C@@H](C)c1ccccc1)[C@@H](C)c1ccccc1)[C@@H](C)c1ccccc1)[C@@H](C)c1ccccc1)[C@@H](C)c1ccccc1)[C@@H](C)c1ccccc1 [Peptoid 10, (NahNspeNspe)4] (H-[Gly(N-(CH2)6NH2)][Nspe][Nspe][Gly(N-(CH2)6NH2)][Nspe][Nspe][Gly(N-(CH2)6NH2)][Nspe][Nspe][Gly(N-(CH2)6NH2)][Nspe][Nspe]-NH2; N-terminus assumed)",CC50 at 24 h,[1],23 µM
same,CC50 at 24 h,[2],41 µM
"C[C@@H](c1ccccc1)N(CC(N)=O)C(=O)CN(C(=O)CN(CCCCCCN)C(=O)CN(C(=O)CN(C(=O)CN(CCCCCCN)C(=O)CN(C(=O)CN(C(=O)CNCCCCCCN)[C@@H](C)c1ccccc1)[C@@H](C)c1ccccc1)[C@@H](C)c1ccccc1)[C@@H](C)c1ccccc1)[C@@H](C)c1ccccc1 [Peptoid 11, (NahNspeNspe)3] (H-[Gly(N-(CH2)6NH2)][Nspe][Nspe][Gly(N-(CH2)6NH2)][Nspe][Nspe][Gly(N-(CH2)6NH2)][Nspe][Nspe]-NH2)",CC50 at 24 h,[1],100 µM
same,CC50 at 24 h,[2],100 µM
